From patent US4355040A, “Hypotensive imidazole-5-acetic acid derivatives” (Takeda Chemical Industries, Ltd., priority 1979, dated 1982)
Counter-ions that a name gives are not always drawn.

Each compound was assayed on angiotensin II (aortic blood vessel of rabbits) (assay: Antagonistic effect on angiotensin II (A II)-induced tension, aortic blood vessel of rabbits). Details: Oryctolagus cuniculus, 0.25 h.
Type: cell-based
Text: Antagonistic effect of the compound (I) of the present invention on angiotensin II (hereinafter referred to briefly as "A II") (with aortic blood vessel of rabbits)
The blood-vessel preparation and reaction were done in accordance with the method as described in "European Journal of Pharmacology", 18, 316 (1972). […] [formula] where; T1 =Change in isometric tension of the blood vessel brought about by A II without a test drug substance (g)

SMILES | inhibition at 1 µM [%] | inhibition at 10 µM [%]
O=C(O)Cc1c(Cl)nc(-c2cc([N+](=O)[O-])c(Cl)c([N+](=O)[O-])c2)n1Cc1ccccc1 [drawing 108] | 82 | –
CN(C)c1c([N+](=O)[O-])cc(-c2nc(Cl)c(CC(=O)O)n2Cc2ccccc2)cc1[N+](=O)[O-] | – | 86

Same assay, conditions: Oryctolagus cuniculus, 0.25 h; 10^-5 M drug substance; A II 4×10^-9 M; 15 minutes; read-out: Inhibition

SMILES | inhibition at 10 µM [%]
O=C(O)Cc1c(Cl)nc(-c2ccccc2O)n1Cc1ccccc1 | 55
Cc1ccccc1Cn1c(-c2ccccc2)nc(Cl)c1CC(=O)O | 58
CCCCNc1ccc(-c2nc(Cl)c(CC(=O)O)n2Cc2ccccc2)cc1 | 63
COc1ccc(Cn2c(-c3ccccc3)nc(Cl)c2CC(=O)O)cc1 | 61
O=C(O)Cc1c(Cl)nc(-c2ccccc2)n1Cc1ccc(Cl)cc1 [1-(4-chlorobenzyl)-4-chloro-2-phenylimidazole-5-acetic acid] | 25
O=C(O)Cc1c(Cl)nc(-c2ccc(O)cc2)n1Cc1ccccc1 [drawing 103] | 32
CN(C)c1ccc(-c2nc(Cl)c(CC(=O)O)n2Cc2ccccc2)cc1[N+](=O)[O-] | 73
O=C(O)Cc1c(Cl)nc(-c2ccccc2[N+](=O)[O-])n1Cc1ccccc1 | 35
Cc1ccc(Cn2c(-c3ccccc3)nc(Cl)c2CC(=O)O)cc1 [4-chloro-1-(4-methylbenzyl)-2-phenylimidazole-5-acetic acid] | 80
O=C(O)Cc1c(Cl)nc(-c2ccccc2)n1Cc1ccc(OCc2ccccc2)cc1 [1-(4-benzyloxybenzyl)-4-chloro-2-phenylimidazole-5-acetic acid] | 19
O=C(O)Cc1c(Cl)nc(-c2ccccc2)n1Cc1ccccc1Cl [drawing 92] | 90
COc1cccc(Cn2c(-c3ccccc3)nc(Cl)c2CC(=O)O)c1 [4-chloro-1-(3-methoxybenzyl)-2-phenylimidazole-5-acetic acid] | 73
Cc1nc(Cl)c(CC(=O)O)n1Cc1ccccc1 [CH3 / H / H / H] | 38
Nc1ccc(-c2nc(Cl)c(CC(=O)O)n2Cc2ccccc2)cc1 [drawing 101] | 50
O=C(O)Cc1c(Cl)nc(-c2ccccc2)n1Cc1ccc(Cl)cc1Cl [1-(2,4-dichlorobenzyl)-4-chloro-2-phenylimidazole-5-acetic acid hydrochloride] | 30
Nc1ccccc1-c1nc(Cl)c(CC(=O)O)n1Cc1ccccc1 | 30
O=C(O)Cc1c(Cl)nc(-c2cccc(O)c2)n1Cc1ccccc1 | 18
O=C(O)Cc1c(Cl)nc(-c2ccc3c(c2)OCO3)n1Cc1ccccc1 | 51

Same assay, conditions: Oryctolagus cuniculus, 0.25 h; 10^-6 M drug substance; A II 4×10^-9 M; 15 minutes; read-out: Inhibition

SMILES | inhibition at 1 µM [%]
CC(C)c1nc(Cl)c(CC(=O)O)n1Cc1ccccc1 [i-C3 H7 / H / H / H] | 41
COc1ccc(-c2nc(Cl)c(CC(=O)O)n2Cc2ccccc2)cc1OC | 18
COc1ccc(Cn2c(-c3ccccc3)nc(Cl)c2CC(=O)O)cc1C [drawing 124, 4-chloro-1-(3-methyl-4-methoxybenzyl)-2-phenylimidazole-5-acetic acid] | 80
COc1cc(-c2nc(Cl)c(CC(=O)O)n2Cc2ccccc2)ccc1O | 16
O=C(O)Cc1c(Cl)nc(-c2ccccc2)n1Cc1ccccc1F [4-chloro-1-(2-fluorobenzyl)-2-phenylimidazole-5-acetic acid] | 23
CN(C)c1ccc(-c2nc(Cl)c(CC(=O)O)n2Cc2ccccc2)cc1Cl | 33
COc1ccc(Cn2c(-c3ccccc3)nc(Cl)c2CC(=O)O)cc1OC | 38
CC(C)(C)c1nc(Cl)c(CC(=O)O)n1Cc1ccccc1 [t-C4 H9 / H / H / H] | 10
O=C(O)Cc1c(Cl)nc(C2CCCCC2)n1Cc1ccccc1 | 18
CN(C)c1ccc(-c2nc(Cl)c(CC(=O)O)n2Cc2ccccc2)cc1Br | 18
COc1ccccc1Cn1c(-c2ccccc2)nc(Cl)c1CC(=O)O | 42
O=C(O)Cc1c(Cl)nc(-c2ccccc2)n1Cc1c(Cl)cccc1Cl | 34
CCCc1nc(Cl)c(CC(=O)O)n1Cc1ccccc1 [n-C3 H7 / H / H / H] | 22
CCCCOc1ccc(Cn2c(-c3ccccc3)nc(Cl)c2CC(=O)O)cc1 [drawing 121] | 56
CCOc1ccccc1Cn1c(-c2ccccc2)nc(Cl)c1CC(=O)O | 41
CCOc1ccc(Cn2c(-c3ccccc3)nc(Cl)c2CC(=O)O)cc1C | 81
COc1cccc(-c2nc(Cl)c(CC(=O)O)n2Cc2ccccc2Cl)c1 | 23

SMILES | inhibition at 1 µM [%]
CCCCc1nc(Cl)c(CC(=O)O)n1Cc1ccccc1OCC [n-C4 H9 / 2-C2 H5 O / H / H, 2-Butyl-4-chloro-1-(2-ethoxybenzyl)imidazole-5-acetic acid] | 53
CCOc1ccc(Cn2c(-c3ccccc3)nc(Cl)c2CC(=O)O)cc1 | 43
CCc1nc(Cl)c(CC(=O)O)n1Cc1ccccc1 [C2 H5 / H / H / H] | 36
CCCCCc1nc(Cl)c(CC(=O)O)n1Cc1ccccc1 [n-C 5 H11 / H / H / H] | 65
O=C(O)Cc1c(Cl)nc(-c2ccccc2)n1Cc1ccccc1Br | 60
CCCCc1nc(Cl)c(CC(=O)O)n1Cc1ccc(OC)c(C)c1 [n-C4 H9 / 3-CH3 / 4-CH3 O / H] | 99
O=C(O)Cc1c(Cl)nc(-c2ccccc2)n1Cc1c(F)cccc1Cl | 64
CCN(CC)c1ccc(-c2nc(Cl)c(CC(=O)O)n2Cc2ccccc2)cc1Cl | 25
COc1cc(-c2nc(Cl)c(CC(=O)O)n2Cc2ccccc2)ccc1OCc1ccccc1 | 18
O=C(O)Cc1c(Cl)nc(-c2ccc(O)c(O)c2)n1Cc1ccccc1 | 34
CCCCCCc1nc(Cl)c(CC(=O)O)n1Cc1ccc(OCCCC)cc1 [n-C6 H13 / 4-n-C4 H9 O / H / H] | 100
CCCCOc1ccc(Cn2c(CCCC)nc(Cl)c2CC(=O)O)cc1 [n-C4 H9 / 4-n-C4 H9 O / H / H] | 85
COc1ccc(-c2nc(Cl)c(CC(=O)O)n2Cc2ccccc2)cc1C | 32
O=C(O)Cc1c(Cl)nc(C2CCCC2)n1Cc1ccccc1 | 34
CCCCCCc1nc(Cl)c(CC(=O)O)n1Cc1ccc(OC)c(C)c1 [n-C6 H13 / 3-CH3 / 4-CH3 O / H] | 100
COc1ccc(Cn2c(-c3ccc(OC)c(C)c3)nc(Cl)c2CC(=O)O)cc1C | 54
O=C(O)Cc1c(Cl)nc(-c2ccccc2)n1Cc1cc([N+](=O)[O-])ccc1Cl [1-(2-chloro-5-nitrobenzyl)-4-chloro-2-phenylimidazole-5-acetic acid] | 34

Same assay, conditions: Oryctolagus cuniculus, 0.25 h; 10^-7 M drug substance; A II 4×10^-9 M; 15 minutes

SMILES | inhibition at 0.1 µM [%]
CCCCCc1nc(Cl)c(CC(=O)O)n1Cc1ccccc1Cl [n-C5 H11 / 2-Cl / H / H] | 57
CCCCCCc1nc(Cl)c(CC(=O)O)n1Cc1ccccc1Cl [n-C6 H13 / 2-Cl / H / H] | 84

Same assay, conditions: Oryctolagus cuniculus, 0.25 h; 10^-8 M drug substance; A II 4×10^-9 M; 15 minutes

SMILES | inhibition at 0.01 µM [%]
CCCCc1nc(Cl)c(CC(=O)O)n1Cc1ccccc1[N+](=O)[O-] [n-C4 H9 / 2-NO2 / H / H] | 30
